Experimental findings from US11459546B2, “Method for producing somatic cell, somatic cell, and composition” (Kyoto Prefectural Public University Corporation, priority 2016, dated 2022) are described below.

In experiment [1] the test system is human fibroblasts. In words: Induction of chondrocyte from human fibroblast, Alcian Blue staining (Example D). The class given is cell-based. The following applies: from comparison of combinations of Table 7, FIG. 15. As to the method:
As materials, human fibroblasts were purchased from DS Pharma Biomedical Co., Ltd. The fibroblasts were derived from a skin of a human.
The human fibroblasts were seeded on 35 mm dishes at a rate of 5×10^4 cells per a dish, and cultured in DMEM medium (Gibco) to which 10% fetal bovine serum (FBS), 100 U/ml penicillin and 100 μg/ml streptomycin under a condition at 37° C. and 5% CO2 were added to become confluent. Note that the DMEM refers to a Dulbecco's Modified Eagle Medium.
The medium in the dish containing the human fibroblasts was exchanged to a DMEM (Thermo Fisher Scientific, Inc.) containing Insulin-Transferrin-Selenium (Thermo Fisher Scientific, Inc., final concentration: 1%), ascorbic acid-2-phosphate (Wako Pure Chemical Industries, Ltd., final concentration: 50 μg/ml), dexamethasone (Wako Pure Chemical Industries, Ltd., final concentration: 0.1 μM), TGF-β3 (PeproTech, Inc., final concentration: 10 ng/ml), L-proline (Nacalai Tesque, final concentration: 40 μg/ml), Antibiotic-Antimycotic (Thermo Fisher Scientific, Inc., final concentration: 1×), and a low molecular weight compound added according to Table 1. Subsequently, the cells were cultured under the condition at 37° C. and 5% CO2 while exchanging the medium to the medium having the same composition every 3 days. The details of the compounds listed in Table 7 are as aforementioned in the present specification.
As a result of culturing human fibroblasts according to Example (2), chondrocyte-like cells appeared 7 days after the onset of culturing. Twenty-one days after the onset of culturing, the cells were subjected to Alcian Blue staining according to a conventional method, to evaluate the presence or absence of acid polysaccharides which are a cartilage matrix. In the figure, the upper pictures show the results of Alcian Blue staining, and the lower pictures present phase-contrast microscopic images in the same visual fields as of the upper pictures.

Experiment [2] relates to human fibroblasts. Nature of the experiment: Induction of osteoblast from human fibroblast, von Kossa staining (Example C). It is filed as cell-based. The following applies: from comparison of combinations of Table 6, FIG. 14. As to the method: As materials, human fibroblasts were purchased from DS Pharma Biomedical Co., Ltd. The fibroblasts were derived from a skin of a human. The human fibroblasts were seeded on 35 mm dishes at a rate of 5×10^4 cells per a dish, and cultured in DMEM medium (Gibco) to which 10% fetal bovine serum (FBS), 100 U/ml penicillin and 100 μg/ml streptomycin under a condition at 37° C. and 5% CO2 were added to become confluent. Note that the DMEM refers to a Dulbecco's Modified Eagle Medium. The medium in the dish containing the human fibroblasts was exchanged to a RPMI1640 with L-Glutamine and Phenol Red (Wako Pure Chemical Industries, Ltd.) containing an osteoblast-inducer reagent (Takara Bio Inc.), and a low molecular weight compound added according to Table 1. Subsequently, the cells were cultured under the condition at 37° C. and 5% CO2 while exchanging the medium to the medium having the same composition every 3 days. The details of the compounds listed in Table 6 are as aforementioned in the present specification. As a result of culturing human fibroblasts according to the above (2), osteoblast-like cells appeared 7 days after the onset of culturing. Twenty-one days after the onset of culturing, the cells were subjected to von Kossa staining according to a conventional method, to evaluate the presence or absence of calcium deposition. In the figure, the upper pictures show the results of von Kossa staining, and the lower pictures present phase-contrast microscopic images in the same visual fields as of the upper pictures.

In experiment [3] the test system is human fibroblasts. In words: Induction of cardiomyocyte from human fibroblast, cTnT immunostaining (Example F). It is filed as cell-based. The following applies: from comparison of combinations of Table 9, FIG. 17. As for the experimental part: (§1) As materials, human fibroblasts were purchased from DS Pharma Biomedical Co., Ltd. The fibroblasts were derived from a skin of a human. The human fibroblasts were seeded on 35 mm dishes at a rate of 8×10^4 cells per a dish, and cultured in DMEM high glucose medium (Gibco) to which 10% fetal bovine serum (FBS), 100 U/ml penicillin and 100 μg/ml streptomycin under a condition at 37° C. and 5% CO2 were added for 2 days. Note that the DMEM refers to a Dulbecco's Modified Eagle Medium. […] Subsequently, the cells were cultured under the condition at 37° C. and 5% CO2 while exchanging the medium to the medium having the same composition every 3 days. The details of the compounds listed in Table 9 are as aforementioned in the present specification. As a result of culturing the human fibroblasts in accordance with the above (2), shrinking or beating single cells or small cell masses were recognized 8 days after the onset of culturing. Twenty-one or more days after the onset of culturing, a large number of shrinking or beating cardiomyocyte-like masses were observed. Twenty-one days after the onset of culturing, the cells were immobilized with 2% paraformaldehyde, and then immunostained. For staining, an anti-cTnT antibody (ab10214, Abcam PLC; diluted 200-fold) was used. […] The lower pictures show phase-contrast microscopic images in the same visual fields as of the upper pictures.

Experiment [4] has as its system human fibroblasts. Nature of the experiment: Induction of brown adipocyte from human fibroblast, UCP1 immunostaining (Example A). The class given is cell-based. As to conditions: from comparison of combinations of Table 1, FIG. 1. As to the method:
as §1, with “(Wako Pure Chemical Industries, Ltd.)” for “(Gibco)”, “1” for “9”, “adipocyte-like” for “shrinking or beating single”, “appeared 6” for “or small cell masses were recognized 8”, “culturing.” for “culturing. Twenty-one or more days after the onset of culturing, a large number of shrinking or beating cardiomyocyte-like masses were observed.”, “immunostained.” for “immunostained. For staining, an anti-cTnT antibody (ab10214, Abcam PLC; diluted 200-fold) was used.”

In experiment [5] the test system is human fibroblasts. Nature of the experiment: Induction of neural cell from human fibroblast, βIII-tubulin immunostaining (Example E). It is filed as cell-based. The following applies: from comparison of combinations of Table 8, FIG. 16. As for the experimental part:
As materials, human fibroblasts were purchased from DS Pharma Biomedical Co., Ltd. The fibroblasts were derived from a skin of a human. The human fibroblasts were seeded on 35 mm dishes at a rate of 8×10^4 cells per a dish, and cultured in DMEM high glucose medium (Wako Pure Chemical Industries, Ltd.) to which 10% fetal bovine serum (FBS), 100 U/ml penicillin and 100 μg/ml streptomycin under a condition at 37° C. and 5% CO2 were added for 2 days. Note that the DMEM refers to a Dulbecco's Modified Eagle Medium. […] Subsequently, the cells were cultured under the condition at 37° C. and 5% CO2 while exchanging the medium to the medium having the same composition every 3 days. The details of the compounds listed in Table 8 are as aforementioned in the present specification. As a result of culturing the human fibroblasts in accordance with the above (2), nerve-like projection structures were recognized 5 days after the onset of culturing. Fourteen days after the onset of culturing, the cells were immobilized with 2% paraformaldehyde, and then immunostained. For staining, an anti-βIII-tubulin antibody (MMS-435P, Covance; diluted 1000-fold) was used. […] The lower pictures show phase-contrast microscopic images in the same visual fields as of the upper pictures.

Experiment [6] has as its system β adrenergic receptor signaling pathway in compound-induced brown adipocytes. Nature of the experiment: Isoproterenol or forskolin treatment of compound-induced brown adipocytes, mRNA by QRT-PCR. The following applies: for expression of Cited1 after treatment / expression of Ckmt1 after treatment: 3 or 6 hours, FIGS. 12 C and D. It is filed as cell-based, human. As for the experimental part: For the purpose of quantifying gene expression, the whole RNA was extracted from the fibroblasts treated with each compound, using the RNeasy Mini kit (QIAGEN N.V). As a control, a fibroblast was cultured in parallel, in the adipocyte medium. The cells were treated with 0.1 μM, 1 μM and 10 μM isoproterenol or forskolin for 3 hours or 6 hours, and then the whole RNA was extracted from the brown adipocytes induced with the compound and the control cell. The whole RNA was reversely transferred with ReverTraAce® PCR RT Master Mix with gDNA Remover (TOYOBO CO., LTD.), and then subjected to a real-time PCR analysis using Power SYBR Green PCR Master Mix (Thermo Fisher Scientific, Inc.). For one standard, 3 reactions were carried out under the following condition: 40 cycles of reactions at 95° C. for 10 minutes, at 95° C. for 15 seconds, and at 60° C. for 60 seconds. All results were standardized by the amount of the Tbp mRNA.
Thermogenesis through the Ucp1 is regulated through the sympathetic nervous system and the […] receptor signaling pathway in the brown adipocytes. For the purpose of evaluating the thermogenetic ability in the […] induced with the compounds, the brown adipocytes were treated with isoproterenols (β adrenergic receptor agonist) at 3 different concentrations for 3 hours or 6 hours, and then the Ucp1 mRNA was quantified (FIG. 12 A).

Regarding `Cc1c[nH]c(-c2cnc(NCCNc3ccc(C#N)cn3)nc2-c2ccc(Cl)cc2Cl)n1` [CHIR99021], the “role of the component for differentiation of the chondrocytes” value with human fibroblasts [1] is “important”. Moreover, in the experiment on human fibroblasts [2], the “role of the component for differentiation of the osteoblasts” value is “important”.
For the compound `c1ccc2c(-c3cnn4cc(-c5ccc(N6CCNCC6)cc5)cnc34)ccnc2c1` [LDN193189], the “role of the component for differentiation of the chondrocytes” value in the experiment on human fibroblasts [1] is on record as “important”. The “role of the component for differentiation of the osteoblasts” value in the experiment on human fibroblasts [2] is given as “important”.
`O=C(NOC[C@H](O)CO)c1ccc(F)c(F)c1Nc1ccc(I)cc1F` [PD0325901]: the “role of the component for differentiation of the chondrocytes” value with human fibroblasts [1] is “not contained”. The “role of the component for differentiation of the osteoblasts” value in the experiment with human fibroblasts [2] is reported as “should not be added”. The “role of the component for differentiation into cardiomyocytes” value with human fibroblasts [3] is listed as “important”.
On to `Cc1cccc(-c2n[nH]cc2-c2ccc3ncccc3n2)n1` [Repsox], for which the “role of the component for differentiation into cardiomyocytes” value in the experiment with human fibroblasts [3] is given as “important”.
Turning to `NC(=O)c1ccc(-c2nc(-c3ccc4c(c3)OCO4)c(-c3ccccn3)[nH]2)cc1` [SB431542], in the experiment with human fibroblasts [1], the “role of the component for differentiation of the chondrocytes” value is listed as “important”. Moreover, in the experiment with human fibroblasts [2], the “role of the component for differentiation of the osteoblasts” value is recorded as “important”. Besides, the “role of the component for differentiation into brown adipocytes” value in the experiment on human fibroblasts [4] is reported as “preferable”.
As to `c1cc(-c2cnn3cc(-c4ccc(OCCN5CCCCC5)cc4)cnc23)ccn1` [dorsomorphin, Dorsomorphin], the “role of the component for differentiation of the chondrocytes” value with human fibroblasts [1] is given as “not contained”. For the same compound, the “role of the component for differentiation into cardiomyocytes” value in the experiment with human fibroblasts [3] is on record as “important”. In the experiment on human fibroblasts [5], the “role of the component for differentiation into neural cells” value is listed as “important”. In the experiment with human fibroblasts [4], the “role of the component for differentiation into brown adipocytes” value is “preferable”.
Take `C=C[C@@]1(C)CC(=O)[C@]2(O)[C@@]3(C)[C@@H](O)CCC(C)(C)[C@@H]3[C@H](O)[C@H](OC(C)=O)[C@@]2(C)O1` [forskolin, Forskolin]: the “Ucp1 expression, cells treated for 6 hours versus 3 hours” value in experiment [6] (0.1, 1 or 10 μM, FIG. 12 B) is on record as “more enhanced”. In experiment [6], the “expression of Cited1 after treatment” value is given as “no significant change” and the “expression of Ckmt1 after treatment” value is reported as “no significant change”. The “role of the component for differentiation of the chondrocytes” value in the experiment with human fibroblasts [1] is recorded as “important”. Also, the “role of the component for differentiation of the osteoblasts” value with human fibroblasts [2] is “important”. Moreover, the “role of the component for differentiation into cardiomyocytes” value in the experiment on human fibroblasts [3] is “important”.
Take `CC(C)NCC(O)c1ccc(O)c(O)c1` (stereo not drawn) [isoproterenol, Isoproterenol]: in experiment [6] (0.1, 1 or 10 μM, versus untreated cells, FIG. 12), the “Ucp1 mRNA, 3-hour treatment” value is “slightly increased”. Moreover, in experiment [6], the “expression of Cited1 after treatment” value is “no significant change” and the “expression of Ckmt1 after treatment” value is “no significant change”.
